Legend:
phospho-AMPK = phospho-AMPK / p-ACC immunoblotting in Beas2B cells (in vitro studies); assay type: cell-based, Human
Experimental: FIG. 3. (A) Beas2b cells were cultured in DMEM 2% media with glucose for 24 h before switching to glucose-free media. Cells were then exposed to either DMSO or Compound 1 (2 μM) in a time course before being collected for immunoblotting. (B) Beas2B cells were exposed to Compound 1 for 18 h at various doses before being collected for immunoblotting. (C) Beas2b cells were cultured in DMEM 2% media with glucose for 24 h before switching to glucose-free media. Cells were then exposed to AICAR at various doses with or without Compound 1 co-treatment. After 18 h, cells were collected before being assayed by immunoblotting.
FIG. 4. (A) Beas2b cells were cultured in DMEM 2% media with glucose for 24 h before switching to glucose-free media. Cells were then exposed to Compound 12 in a dose dependent manner for 18 h before being collected for immunoblotting. (B) Beas2b cells were cultured in DMEM 2% media with glucose for 24 h before Compound 12 treatment in a dose dependent manner. After 18 h, cells were then collected for immunoblotting. (C) Beas2b cells were cultured in DMEM 2% media with glucose for 24 h before switching to glucose-free media. Cells were then exposed to Compound 12 for 18 h before being collected for mRNA analysis. (D) 50K PBMC cells were cultured in 96 well plates before being exposed to Compound 12 for 4 h. Cells were then treated with LPS (10 ng/ml) for additional 2 h. Media were then collected and IL-1b concentration was determined by ELISA.
FIG. 9. (A) Beas2b cells were cultured in DMEM 2% media with glucose for 24 h before switching to glucose-free media. Cells were then exposed to Compound 23 or metformin in a dose dependent manner for 18 h before being collected for immunoblotting. (B) Beas2b cells were cultured in DMEM 2% media with glucose for 24 h before switching to glucose-free media and treated with Compound 12 or Compound 23 in a dose dependent manner. After 6 h, cells were then collected for immunoblotting. (C) Beas2b cells were cultured in DMEM 2% media with glucose for 24 h before switching to glucose-free media and treated with Compound 12 or Compound 23 in a dose dependent manner. After 18 h, cells were then collected for immunoblotting. (D) Beas2b cells were transfected with AMPK phospho mimic T172D or phospho dead T172A mutant for 24 h. Cells were then switched to glucose-free media and exposed to Compound 23 in a dose or time dependent manner before being collected for immunoblotting. (E) Beas2b cells were transfected with control siRNA or Fbxo48 siRNA for 48 h before switching to glucose-free media. Cells were then exposed to Compound 23 in a dose dependent manner before being collected for immunoblotting. (F) Compound 23 chemical structure.
Compound 1 was studied in in vitro assays using Beas2B cells. […]
Compound 23 was tested in in vitro studies using Beas2B cells and compared with metformin.

mice = experiment: LPS pneumonia model; assay type: in vivo; conditions: 2 or 10 mg/kg i.p., LPS 3 mg/kg i.t., 18 h
Experimental: FIG. 8. Compound 12 (2 or 10 mg/kg) was administered to mice though an i.p. injection, and mice were immediately challenged with LPS (E. coli, 3 mg/kg, i.t.) or without (control, CON) for an additional 18 h. Mice were then euthanized and lungs were lavaged with saline, harvested, and then homogenized. Lavage protein (H), cell counts (I) and cytokine secretions (E-G) were measured. Lungs were homogenized before being assayed by immunoblotting. The data are representative of data from n=5-6 mice/group, *P<0.05 versus vehicle. Serum cytokines (A-C) and peritoneal bacteria (D) were also measured.
(§1) FIG. 11. (A-B.) C57BL6 mice were administered i.p. vehicle, 0.08, 0.4, 2 or 10 mg/kg of Compound 23. After 10 min, mice were given LPS (E. coli, 3 mg/kg) through an i.p. injection and, after 2 h, mice were euthanized and blood collected for IL-6 and TNFα measurements. Shown in panels (A-B.) are the cytokine levels as a function of drug dose. The data represent n=3 mice/group at each dose. (C-G) Compound 23 (2 or 10 mg/kg) was administered to mice though an i.p. injection, and mice were immediately challenged with LPS (E. coli, 3 mg/kg, i.t.) or without (control, CON) for an additional 18 h. Mice were then euthanized and lungs were lavaged with saline, harvested, and then homogenized. Lavage protein (C), cell counts (D) and cytokine secretions (E-G) were measured. The data are representative of data from n=5 mice/group, *P<0.05 versus vehicle.
Compound 12 was tested in two pneumonia model using Pseudomonas or LPS endotoxin.
(§2) Compound 23 was tested in a sepsis model. Compound 23 was administered to mice at various doses through an i.p. injection, and 10 min later, mice were given LPS (E. coli; 3 mg/kg i.p.). After 2 h, mice were euthanized and blood was collected and assayed for IL-6 and TNFα cytokine levels. […] Finally, Compound 23 was tested in a pneumonia model using LPS endotoxin. […] Thus Compound 23 protects the lung against LPS induced lung injury.

C57BL6 mice = experiment: LPS-induced sepsis model; assay type: in vivo; conditions: i.p., LPS (E. coli) 3 mg/kg i.p. after 10 min, blood at 2 h
Experimental: FIG. 5. C57BL6 mice were administered i.p. vehicle, 0.04, 0.2, 1 or 5 mg/kg of Compound 12. After 10 min, mice were given LPS (E. coli, 3 mg/kg) through an i.p. injection and, after 2 h, mice were euthanized and blood was collected for IL1-β, IL-6 and TNFα measurements. Shown in panels (D)-(F) is % inhibition of cytokine levels as a function of drug dose. The data represent n=3 mice/group at each dose. Protein (A), cell counts (B), bacterial count (C), and presence of AMPK and pAMPK (G) were also determined.
as §1
In a sepsis model, Compound 12 was administered to mice at various doses through an i.p. injection, and, after 10 min, the mice were given LPS (E. coli; 3 mg/kg i.p.). Two hours later, the mice were euthanized, and blood was collected and assayed for IL-1β, IL-6 and TNFα cytokine levels.
as §2

With `OC(COc1ccc(F)cc1)CN(Cc1ccccc1)Cc1ccccc1` (centres unmarked) [Compound 12] the “concentration effectively increasing phospho-AMPK and downstream p-ACC levels” value (phospho-AMPK; Beas2b, with or without glucose, 18 h) was 100 to 500 nM, the lavage cell counts (mice) was “significantly decreased” and the lavage cytokine release (mice) was “significantly decreased”. The lavage protein concentration (mice) was “significantly decreased”, the “pAMPK levels within the lung tissue” value (mice; immunoblotting) was “effectively increased” and the “ID50 IL-1β” value (C57BL6 mice) was 0.1 mg/kg. For the same compound, the “ID50 IL-6” value (C57BL6 mice) was 0.4 mg/kg and the “ID50 TNF-α” value (C57BL6 mice) was 0.4 mg/kg.
`OC(COc1ccc(C(F)(F)F)cc1)CN(Cc1ccccc1)Cc1ccccc1` (centres unmarked) [Compound 23] was tested, and the “level of AMPK T172D phospho mimic mutant” value (phospho-AMPK; Beas2b transfected with T172D mutant, glucose-free media) was “drastically increases”, the “pAMPK and pACC levels after Fbxo48 knockdown” value (phospho-AMPK; Beas2b, Fbxo48 siRNA 48 h, glucose-free media) was “not able to further activate the pathway” and the “activity on pAMPK compared to Compound 12” value (phospho-AMPK; Beas2b, glucose-free media, 6 h and 18 h) was “comparable or slightly improved activity”. The “concentration range increasing pAMPK phosphorylation and downstream substrate ACC phosphorylation” value (phospho-AMPK; Beas2b, glucose-free media, 18 h) was “submicromolar”, the lavage cell counts (mice) was “substantially decreased” and the lavage cytokine release (mice) was “effectively reduces”. The lavage protein concentration (mice) was “substantially decreased”, the “ID50 IL-6” value (C57BL6 mice) was 0.4 mg/kg and the “ID50 TNF-α” value (C57BL6 mice) was 0.4 mg/kg.

Source: patent US11673853B2, “Small molecule AMPK activators” (University of Pittsburgh—Of the Commonwealth System of …, priority 2016, dated 2023)
